Results as given in ChEMBL document CHEMBL1201862, “PubChem BioAssay data set” (2004).
Calls of active or inactive are those of the source.

Key:
Mu-type opioid receptor = Mu-type opioid receptor (Homo sapiens, UniProt P35372); assay type: functional, cell-based;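 also: U2OS cells with beta-arrestin recruitment to OPRM1 by beta-gal complementation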
[1] = target: 5-hydroxytryptamine receptor 2A (Mus musculus, UniProt P35363); assay type: functional, cell-based;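 also: CHO-K1 cells with tagged receptor and beta-arrestin; agonist potency measured as compound-induced activation of the receptor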
[2] = Counterscreen for activators of the function of SWI/SNF related, matrix associated, actin dependent regulator of chromatin, subfamily a, member 2 (SMARCA2, BRM): Luminescence-based cell-based high throughput dose response assay to identify non-selective compounds using the VP16 reporter assay.; assay type: functional
[3] = target: SWI/SNF-related matrix-associated actin-dependent regulator of chromatin subfamily A member 2 (Homo sapiens, UniProt P51531); test: Luminescence-based cell-based high throughput dose response assay to identify activators of the function of SWI/SNF related, matrix associated, actin dependent regulator of chromatin, subfamily a, member 2 (SMARCA2, BRM).; assay type: functional
cells [4] = assay type: functional, cell-based; settings: HEK-CNG
Galanin receptor type 3 = Galanin receptor type 3 (Homo sapiens, UniProt O60755); test: Fluorescence-based cell-based primary high throughput dose response assay to identify antagonists of the Galanin Receptor 3 (GalR3).; assay type: functional
[5] = HEK-293T viability loss after treatment – luminescence, T-cell screen hits, cytotoxicity control for TCR NF-kB inhibitor project, dose response (AID 489026); assay type: functional, cell-based;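 also: cells exposed to compound about 14 hours before the viability readout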
[6] = target: T1, Methionyl-tRNA synthetase, putative (Trypanosoma brucei brucei, UniProt Q38C91); assay type: functional, Trypanosoma brucei brucei strain 927/4 GUTat10.1
[7] = target: T1, Methionyl-tRNA synthetase, putative; assay type: functional, Trypanosoma brucei brucei strain 927/4 GUTat10.1; remark: listed apart in the source
[8] = loss of viability in HepG2 cells – cell-based, CellTiter-Glo, cherry-picked, cytotoxicity control for Shn3 inhibitor project, dose response (AID 624134); assay type: functional
[9] = Counterscreen for inhibitors of Trypanosoma brucei methionyl tRNA synthetase (MetRS): Luminescence-based cell-based high throughput dose response assay to identify compounds that are cytotoxic to Jurkat human T lymphocyte cells.; assay type: functional
[10] = non-specific 3'UTR reporter inhibition in Clone20-Shn3RL – cell-based, Renilla luciferase, cherry-picked, counter-screen for Shn3 inhibitor project, dose response (AID 624133); assay type: functional
Cytochrome P450 2D6 = Cytochrome P450 2D6 (Homo sapiens, UniProt P10635);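 also: CYP2D6 member of a cytochrome P450 panel assay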
Cytochrome P450 2C9 = Cytochrome P450 2C9 (Homo sapiens, UniProt P11712)
[11] = reduction of Shn3 3'UTR-driven luciferase in osteoblasts – cell-based, Clone20 osteoblasts, firefly luciferase, cherry-picked, dose response (AID 624132); assay type: functional;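 also: firefly luciferase luminescence from reporter carrying the Shn3 3'UTR in osteoblasts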
Cytochrome P450 3A4 = Cytochrome P450 3A4 (Homo sapiens, UniProt P08684);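 also: CYP3A4 tested as one member of a cytochrome P450 panel screen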
[12] = target: T2, Nuclear receptor subfamily 0 group B member 1 (Homo sapiens, UniProt P51843); assay type: functional, cell-based;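 also: HEK293T cells transfected with SF-1 and DAX-1 plus StAR promoter luciferase reporter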
T2 sequence (P51843 whole entry): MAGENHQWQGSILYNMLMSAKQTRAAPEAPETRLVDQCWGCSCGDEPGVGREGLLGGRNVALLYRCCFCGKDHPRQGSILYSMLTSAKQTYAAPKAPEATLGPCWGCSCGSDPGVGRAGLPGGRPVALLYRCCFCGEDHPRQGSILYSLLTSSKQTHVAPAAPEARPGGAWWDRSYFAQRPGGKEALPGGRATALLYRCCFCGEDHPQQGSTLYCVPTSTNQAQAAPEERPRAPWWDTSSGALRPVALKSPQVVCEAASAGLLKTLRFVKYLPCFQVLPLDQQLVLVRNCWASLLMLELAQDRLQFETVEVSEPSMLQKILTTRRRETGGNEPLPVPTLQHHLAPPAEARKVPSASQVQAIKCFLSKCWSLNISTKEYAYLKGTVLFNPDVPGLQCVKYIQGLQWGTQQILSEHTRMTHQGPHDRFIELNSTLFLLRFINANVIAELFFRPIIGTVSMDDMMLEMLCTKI

cells [13] = assay type: functional, cell-based
Beta-lactamase [14] = target: Beta-lactamase (Salmonella choleraesuis (strain SC-B67), UniProt Q5J463); test: Epi-absorbance-based counterscreen for selective VIM-2 inhibitors: dose response biochemical high throughput screening assay to identify inhibitors of TEM-1 serine-beta-lactamase.
Beta-lactamase [15] = target: T3, Beta-lactamase (Pseudomonas aeruginosa, UniProt Q79MP6); test: […] counterscreen for selective VIM-2 inhibitors: dose response biochemical high throughput screening assay to identify inhibitors of IMP-1 metallo-beta-lactamase.
Beta-lactamase [16] = target: T3, Beta-lactamase; test: inhibition of IMP-1 beta-lactamase activity – biochemical, epi-absorbance, selectivity assay for VIM-2 inhibitor project, dose response (AID 1920)
Beta Lactamase [17] = target: T4, Beta Lactamase (Pseudomonas aeruginosa, UniProt Q932Y6); test: VIM-2 CCF2 hydrolysis inhibition, assay artifact filter – biochemical, FRET readout, CCF2 substrate, artefact control for selective VIM-2 inhibitor project, dose response (AID 1926)
Beta Lactamase [18] = target: T4, Beta Lactamase; test: concentration-dependent VIM-2 enzyme inhibition – biochemical, epi-absorbance readout, selective inhibitors, dose response (AID 1919)
Caspase-3 [19] = target: T5, Caspase-3 (Homo sapiens, UniProt P42574); test: Dose-response confirmation of uHTS inhibitor hits of Sentrin-Specific Protease 8 in a Caspase-3 Fluorescence assay.; assay type: functional
T5 sequence (P42574 whole entry): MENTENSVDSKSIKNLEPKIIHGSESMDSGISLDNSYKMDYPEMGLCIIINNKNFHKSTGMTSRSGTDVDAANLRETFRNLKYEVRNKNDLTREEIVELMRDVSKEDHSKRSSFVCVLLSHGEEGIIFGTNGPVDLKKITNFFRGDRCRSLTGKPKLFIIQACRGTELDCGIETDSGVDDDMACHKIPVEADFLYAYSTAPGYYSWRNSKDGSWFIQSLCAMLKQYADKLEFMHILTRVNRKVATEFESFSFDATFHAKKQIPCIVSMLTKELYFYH

[20] = target: T6, Sentrin-specific protease 6 (Homo sapiens, UniProt Q9GZR1); assay type: functional;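 also: Luminescence-based dose-response confirmatory assay of SENP6 inhibition, following up an ultra-high-throughput screen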
T6 sequence (Q9GZR1 whole entry): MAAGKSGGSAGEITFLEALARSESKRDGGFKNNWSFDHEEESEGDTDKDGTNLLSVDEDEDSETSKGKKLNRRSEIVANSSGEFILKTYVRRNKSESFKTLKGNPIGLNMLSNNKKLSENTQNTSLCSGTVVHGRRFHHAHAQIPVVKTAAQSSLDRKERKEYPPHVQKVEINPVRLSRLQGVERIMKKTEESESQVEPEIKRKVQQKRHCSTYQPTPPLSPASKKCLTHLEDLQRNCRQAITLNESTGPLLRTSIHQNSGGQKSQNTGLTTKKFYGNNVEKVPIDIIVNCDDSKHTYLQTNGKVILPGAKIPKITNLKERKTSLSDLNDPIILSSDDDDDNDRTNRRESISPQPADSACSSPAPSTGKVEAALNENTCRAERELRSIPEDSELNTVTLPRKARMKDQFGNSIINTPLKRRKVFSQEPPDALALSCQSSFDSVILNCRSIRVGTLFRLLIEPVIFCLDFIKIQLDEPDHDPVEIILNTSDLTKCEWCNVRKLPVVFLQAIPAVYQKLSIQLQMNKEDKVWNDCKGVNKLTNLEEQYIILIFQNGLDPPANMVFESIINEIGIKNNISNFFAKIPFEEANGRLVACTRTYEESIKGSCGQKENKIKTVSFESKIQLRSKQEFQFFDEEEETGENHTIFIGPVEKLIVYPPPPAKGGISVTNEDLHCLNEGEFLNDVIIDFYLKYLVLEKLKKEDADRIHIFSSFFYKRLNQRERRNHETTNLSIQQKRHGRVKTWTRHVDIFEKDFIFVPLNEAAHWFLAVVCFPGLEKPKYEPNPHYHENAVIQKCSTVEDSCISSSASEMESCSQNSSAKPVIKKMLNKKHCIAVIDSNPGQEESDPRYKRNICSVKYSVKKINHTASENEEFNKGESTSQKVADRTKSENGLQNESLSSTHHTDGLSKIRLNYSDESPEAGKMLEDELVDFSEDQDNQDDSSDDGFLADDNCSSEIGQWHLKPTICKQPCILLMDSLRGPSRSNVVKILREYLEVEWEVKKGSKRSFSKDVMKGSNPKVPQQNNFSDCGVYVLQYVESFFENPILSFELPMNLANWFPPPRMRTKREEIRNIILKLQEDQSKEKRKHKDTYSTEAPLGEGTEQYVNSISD

Caspase-3 [21] = target: T5, Caspase-3; assay type: functional
[22] = target: T7, Sentrin-specific protease 8 (Homo sapiens, UniProt Q96LD8); assay type: functional
T7 sequence (Q96LD8 whole entry): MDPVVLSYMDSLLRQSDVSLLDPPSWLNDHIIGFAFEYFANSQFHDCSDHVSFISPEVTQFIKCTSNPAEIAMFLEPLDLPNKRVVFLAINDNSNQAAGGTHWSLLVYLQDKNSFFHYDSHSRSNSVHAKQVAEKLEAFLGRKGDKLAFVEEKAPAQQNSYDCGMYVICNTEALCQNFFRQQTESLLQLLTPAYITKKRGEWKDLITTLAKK

[23] = target: T7, Sentrin-specific protease 8; assay type: functional; remark: listed apart in the source
[24] = target: T7, Sentrin-specific protease 8; assay type: functional; remark: listed apart in the source
[25] = target: T8, Sentrin-specific protease 7 (Homo sapiens, UniProt Q9BQF6); assay type: functional;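 also: Luminescence-based dose-response confirmation of ultra-high-throughput screening hits, measuring inhibition of SENP7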
T8 sequence (Q9BQF6 whole entry): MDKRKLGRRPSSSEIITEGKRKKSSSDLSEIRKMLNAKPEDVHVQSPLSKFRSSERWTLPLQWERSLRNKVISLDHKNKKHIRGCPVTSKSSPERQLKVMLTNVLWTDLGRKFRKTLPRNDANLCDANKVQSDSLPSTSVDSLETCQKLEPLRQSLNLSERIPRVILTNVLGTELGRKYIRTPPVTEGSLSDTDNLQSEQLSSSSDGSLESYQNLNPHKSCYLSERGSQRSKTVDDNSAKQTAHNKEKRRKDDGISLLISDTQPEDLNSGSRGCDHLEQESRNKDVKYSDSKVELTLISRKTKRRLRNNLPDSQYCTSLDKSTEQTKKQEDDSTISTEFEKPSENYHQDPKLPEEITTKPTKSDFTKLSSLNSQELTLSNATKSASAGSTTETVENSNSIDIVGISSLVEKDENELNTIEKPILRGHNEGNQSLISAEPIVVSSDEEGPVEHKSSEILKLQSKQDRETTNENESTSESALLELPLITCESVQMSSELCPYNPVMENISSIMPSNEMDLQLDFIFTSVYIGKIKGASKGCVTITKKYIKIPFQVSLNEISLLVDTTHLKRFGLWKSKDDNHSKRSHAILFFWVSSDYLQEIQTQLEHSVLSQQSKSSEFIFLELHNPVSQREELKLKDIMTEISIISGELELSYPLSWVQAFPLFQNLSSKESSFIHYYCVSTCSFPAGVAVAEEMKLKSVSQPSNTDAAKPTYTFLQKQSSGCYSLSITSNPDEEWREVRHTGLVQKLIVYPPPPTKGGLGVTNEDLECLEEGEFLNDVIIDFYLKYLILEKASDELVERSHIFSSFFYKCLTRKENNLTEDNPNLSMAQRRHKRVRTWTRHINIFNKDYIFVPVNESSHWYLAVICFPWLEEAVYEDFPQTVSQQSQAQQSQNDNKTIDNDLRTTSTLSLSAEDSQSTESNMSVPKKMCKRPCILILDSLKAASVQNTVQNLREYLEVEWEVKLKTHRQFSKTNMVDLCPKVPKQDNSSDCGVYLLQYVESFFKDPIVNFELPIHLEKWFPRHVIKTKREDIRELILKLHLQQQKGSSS

[26] = target: Mitochondrial peptide methionine sulfoxide reductase (Bos taurus, UniProt P54149); test: Absorbance-based biochemical high throughput dose response assay for activators of Methionine sulfoxide reductase A (MsrA).; assay type: functional
Protein S100-A4 = Protein S100-A4 (Homo sapiens, UniProt P26447); test: human S100A4 peptide interaction inhibition curves – biochemical, fluorescence polarization, cherry-picked hits, dose response (AID 687001); assay type: functional
Vero = test: viability loss in Vero cells – cell-based, plate reader, cherry-pick samples, cytotoxicity control, dose response (AID 687020); assay type: functional; settings: Chlorocebus sabaeus

T3 sequence (Q79MP6 whole entry): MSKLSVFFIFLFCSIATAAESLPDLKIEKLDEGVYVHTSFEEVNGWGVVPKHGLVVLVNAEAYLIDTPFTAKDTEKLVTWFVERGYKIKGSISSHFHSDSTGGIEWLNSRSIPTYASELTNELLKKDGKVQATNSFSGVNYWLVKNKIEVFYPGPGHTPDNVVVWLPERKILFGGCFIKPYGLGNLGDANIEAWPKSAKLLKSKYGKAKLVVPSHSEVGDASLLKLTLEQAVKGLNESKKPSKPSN
T4 sequence (Q932Y6 whole entry): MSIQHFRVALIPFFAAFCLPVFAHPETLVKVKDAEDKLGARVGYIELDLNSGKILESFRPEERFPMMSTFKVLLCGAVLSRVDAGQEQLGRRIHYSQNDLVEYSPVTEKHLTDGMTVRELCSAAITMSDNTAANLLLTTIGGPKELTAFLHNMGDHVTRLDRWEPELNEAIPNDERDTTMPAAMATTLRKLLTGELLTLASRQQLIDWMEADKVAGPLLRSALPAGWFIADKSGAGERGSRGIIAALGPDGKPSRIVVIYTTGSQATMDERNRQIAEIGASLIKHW
T1 sequence (Q38C91 whole entry): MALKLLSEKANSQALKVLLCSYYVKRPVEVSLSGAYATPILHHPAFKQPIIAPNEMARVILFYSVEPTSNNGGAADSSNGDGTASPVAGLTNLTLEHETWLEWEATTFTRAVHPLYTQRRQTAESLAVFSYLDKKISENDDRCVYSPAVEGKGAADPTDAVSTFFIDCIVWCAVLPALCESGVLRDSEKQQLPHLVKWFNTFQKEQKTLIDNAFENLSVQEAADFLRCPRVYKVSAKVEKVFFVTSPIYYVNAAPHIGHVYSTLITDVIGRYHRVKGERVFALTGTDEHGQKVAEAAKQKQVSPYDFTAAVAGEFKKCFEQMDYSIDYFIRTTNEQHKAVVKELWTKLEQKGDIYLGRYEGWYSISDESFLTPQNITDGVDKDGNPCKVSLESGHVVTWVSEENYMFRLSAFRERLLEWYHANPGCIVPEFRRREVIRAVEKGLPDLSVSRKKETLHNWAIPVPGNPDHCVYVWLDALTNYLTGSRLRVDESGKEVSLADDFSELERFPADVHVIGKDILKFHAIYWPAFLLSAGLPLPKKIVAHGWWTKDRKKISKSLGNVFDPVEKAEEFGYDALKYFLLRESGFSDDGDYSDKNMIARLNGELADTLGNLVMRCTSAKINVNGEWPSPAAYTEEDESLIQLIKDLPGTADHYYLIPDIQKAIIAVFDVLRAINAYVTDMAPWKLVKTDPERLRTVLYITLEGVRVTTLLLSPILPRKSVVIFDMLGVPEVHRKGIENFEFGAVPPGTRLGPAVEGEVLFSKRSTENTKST
Sequence of Mu-type opioid receptor (P35372 whole entry): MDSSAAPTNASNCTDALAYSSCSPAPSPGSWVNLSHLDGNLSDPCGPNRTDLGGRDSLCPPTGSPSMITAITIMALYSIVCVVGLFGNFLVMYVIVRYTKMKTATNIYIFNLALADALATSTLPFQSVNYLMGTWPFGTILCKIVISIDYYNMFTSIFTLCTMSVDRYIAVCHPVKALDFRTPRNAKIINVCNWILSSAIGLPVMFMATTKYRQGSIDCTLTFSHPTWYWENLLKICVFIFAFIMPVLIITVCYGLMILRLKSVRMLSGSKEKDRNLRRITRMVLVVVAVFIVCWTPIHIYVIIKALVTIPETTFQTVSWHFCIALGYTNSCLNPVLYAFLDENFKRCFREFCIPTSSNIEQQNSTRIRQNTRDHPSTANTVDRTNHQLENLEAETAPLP
Sequence of Galanin receptor type 3 (O60755 whole entry): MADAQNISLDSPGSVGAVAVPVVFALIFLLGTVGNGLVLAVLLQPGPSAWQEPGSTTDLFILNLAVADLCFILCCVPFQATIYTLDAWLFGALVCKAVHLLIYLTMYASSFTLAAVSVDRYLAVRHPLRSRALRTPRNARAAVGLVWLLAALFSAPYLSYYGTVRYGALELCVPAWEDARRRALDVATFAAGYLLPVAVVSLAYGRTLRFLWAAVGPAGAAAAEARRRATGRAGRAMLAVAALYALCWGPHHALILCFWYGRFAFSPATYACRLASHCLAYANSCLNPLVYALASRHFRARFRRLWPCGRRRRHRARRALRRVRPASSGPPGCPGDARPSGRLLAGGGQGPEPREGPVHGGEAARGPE
Sequence of Protein S100-A4 (P26447 whole entry): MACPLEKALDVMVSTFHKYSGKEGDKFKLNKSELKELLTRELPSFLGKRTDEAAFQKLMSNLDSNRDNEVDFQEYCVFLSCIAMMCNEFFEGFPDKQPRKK
Sequence of Cytochrome P450 3A4 (P08684 whole entry): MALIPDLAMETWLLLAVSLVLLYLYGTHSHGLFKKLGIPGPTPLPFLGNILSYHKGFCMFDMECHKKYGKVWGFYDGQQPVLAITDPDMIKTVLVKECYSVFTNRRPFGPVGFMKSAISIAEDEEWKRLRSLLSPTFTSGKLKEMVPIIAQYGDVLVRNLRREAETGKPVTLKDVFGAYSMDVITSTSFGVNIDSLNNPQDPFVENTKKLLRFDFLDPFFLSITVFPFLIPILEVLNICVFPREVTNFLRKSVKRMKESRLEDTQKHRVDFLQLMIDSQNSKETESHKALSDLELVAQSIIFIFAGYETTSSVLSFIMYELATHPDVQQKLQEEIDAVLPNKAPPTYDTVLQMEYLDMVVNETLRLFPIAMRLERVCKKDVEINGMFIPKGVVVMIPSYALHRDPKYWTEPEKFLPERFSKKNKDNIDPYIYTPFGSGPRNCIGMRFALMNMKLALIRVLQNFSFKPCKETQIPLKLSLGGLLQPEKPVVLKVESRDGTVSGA
Sequence of 5-hydroxytryptamine receptor 2A (P35363 whole entry): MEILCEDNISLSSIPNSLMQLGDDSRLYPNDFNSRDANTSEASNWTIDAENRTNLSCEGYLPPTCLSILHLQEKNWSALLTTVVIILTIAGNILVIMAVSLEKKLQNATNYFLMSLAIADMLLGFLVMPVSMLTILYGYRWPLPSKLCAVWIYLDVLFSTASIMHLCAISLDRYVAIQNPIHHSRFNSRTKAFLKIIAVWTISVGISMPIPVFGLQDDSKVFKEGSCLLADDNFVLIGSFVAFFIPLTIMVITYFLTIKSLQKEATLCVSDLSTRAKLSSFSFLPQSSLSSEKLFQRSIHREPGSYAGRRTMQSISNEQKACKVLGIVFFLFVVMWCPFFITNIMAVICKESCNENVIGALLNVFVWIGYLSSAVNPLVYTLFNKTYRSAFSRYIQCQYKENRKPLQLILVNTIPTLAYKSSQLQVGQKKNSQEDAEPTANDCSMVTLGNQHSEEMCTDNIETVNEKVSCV
Sequence of Mitochondrial peptide methionine sulfoxide reductase (P54149 whole entry): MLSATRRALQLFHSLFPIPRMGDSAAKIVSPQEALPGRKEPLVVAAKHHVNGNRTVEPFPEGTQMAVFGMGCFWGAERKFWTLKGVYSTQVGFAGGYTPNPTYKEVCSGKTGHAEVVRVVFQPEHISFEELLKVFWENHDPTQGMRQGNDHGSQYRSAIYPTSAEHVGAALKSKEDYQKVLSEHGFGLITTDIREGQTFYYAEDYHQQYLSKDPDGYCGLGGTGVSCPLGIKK
Sequence of Cytochrome P450 2C9 (P11712 whole entry): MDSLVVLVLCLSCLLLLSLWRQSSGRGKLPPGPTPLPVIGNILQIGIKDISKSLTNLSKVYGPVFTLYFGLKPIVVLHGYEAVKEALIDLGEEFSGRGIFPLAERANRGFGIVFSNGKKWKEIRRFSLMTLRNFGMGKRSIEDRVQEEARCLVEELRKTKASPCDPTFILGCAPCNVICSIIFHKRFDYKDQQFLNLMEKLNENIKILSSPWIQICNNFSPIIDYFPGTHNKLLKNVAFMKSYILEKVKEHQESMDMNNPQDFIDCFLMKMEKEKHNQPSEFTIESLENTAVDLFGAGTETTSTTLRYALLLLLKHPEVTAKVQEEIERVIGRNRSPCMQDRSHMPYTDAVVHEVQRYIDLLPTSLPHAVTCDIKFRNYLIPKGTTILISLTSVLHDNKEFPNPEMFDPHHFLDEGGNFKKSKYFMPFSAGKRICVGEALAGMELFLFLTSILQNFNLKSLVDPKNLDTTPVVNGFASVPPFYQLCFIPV
Sequence of Cytochrome P450 2D6 (P10635 whole entry): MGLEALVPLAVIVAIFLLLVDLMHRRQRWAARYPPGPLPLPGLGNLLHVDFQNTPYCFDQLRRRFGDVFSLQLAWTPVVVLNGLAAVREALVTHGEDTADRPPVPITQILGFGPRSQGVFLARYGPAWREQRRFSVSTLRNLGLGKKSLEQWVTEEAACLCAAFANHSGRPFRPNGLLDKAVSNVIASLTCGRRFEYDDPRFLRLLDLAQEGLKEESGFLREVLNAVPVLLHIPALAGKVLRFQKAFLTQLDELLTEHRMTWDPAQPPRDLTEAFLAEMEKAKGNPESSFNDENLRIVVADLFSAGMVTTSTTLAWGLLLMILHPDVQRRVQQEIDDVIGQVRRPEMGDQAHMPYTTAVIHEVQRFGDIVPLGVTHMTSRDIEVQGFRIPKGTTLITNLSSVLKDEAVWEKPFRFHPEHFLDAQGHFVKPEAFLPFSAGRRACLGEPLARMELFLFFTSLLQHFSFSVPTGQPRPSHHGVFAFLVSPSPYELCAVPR
Sequence of Beta-lactamase (Salmonella choleraesuis (strain SC-B67), UniProt Q5J463) (Q5J463 whole entry): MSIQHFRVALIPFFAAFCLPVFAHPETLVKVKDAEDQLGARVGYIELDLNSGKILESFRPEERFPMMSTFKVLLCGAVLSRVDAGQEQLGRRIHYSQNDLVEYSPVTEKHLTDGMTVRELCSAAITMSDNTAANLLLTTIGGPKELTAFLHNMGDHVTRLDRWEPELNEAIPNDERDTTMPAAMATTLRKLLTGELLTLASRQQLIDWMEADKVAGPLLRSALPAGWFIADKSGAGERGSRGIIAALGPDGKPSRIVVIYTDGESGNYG

Cc1ccc(C)c(CN2CCN(c3ncccn3)CC2)c1
EC50 (Mu-type opioid receptor): 92.4 µM (inactive) | EC50 [1]: 76 µM (inactive)

CCCCn1c(=N)n(CC(=O)c2ccc(OC)cc2)c2ccccc21
EC50 [2]: > 91.1 µM (inactive) | EC50 [3]: > 91.1 µM (inactive)

CCCCc1ccc(NC(=O)c2ccc(N(C)S(C)(=O)=O)cc2)cc1
EC50 (cells [4]): > 29.9 µM (inactive) | IC50 (Galanin receptor type 3): 0.996 µM (active) | IC50 [5]: > 80 µM (inactive)

Nc1nc(N)c(-c2cccc(C(F)(F)F)c2)c(Cc2cccc(C(F)(F)F)c2)n1
IC50 [6]: 12.7 µM (inactive) | IC50 [7]: 19.5 µM (inactive) | AC50 [8]: 5.88 µM (active) | IC50 [9]: 20.7 µM (inactive) | AC50 [10]: 3.87 µM (active) | AC50 (Cytochrome P450 2D6): 3.98 µM (inconclusive) | AC50 (Cytochrome P450 2C9): 5.01 µM (inconclusive) | AC50 [11]: 3.6 µM (active) | AC50 (Cytochrome P450 3A4): 3.16 µM (inconclusive)

Cn1nnnc1SCC(=O)Nc1ccc2c(c1)OCCO2
IC50 [12]: > 67.5 µM (inactive) | IC50 (cells [13]): > 67.5 µM (inactive)

COc1ccc(C(=O)C2=C(O)C(=O)N(Cc3ccco3)C2c2cc(OC)ccc2OC)cc1 (stereo not drawn)
IC50 (Beta-lactamase [14]): > 59.6 µM (inactive) | IC50 (Beta-lactamase [15]): > 59.6 µM (inactive) | IC50 (Beta-lactamase [16]): > 59.6 µM (inactive) | IC50 (Beta Lactamase [17]): 5.61 µM (active) | IC50 (Beta Lactamase [18]): 12.8 µM (inactive)

O=C(COC(=O)c1ccc([N+](=O)[O-])s1)NNC(=O)c1ccccc1
IC50 (Caspase-3 [19]): 84.6 µM (inactive) | IC50 [20]: 4.34 µM (active) | IC50 (Caspase-3 [21]): 6.74 µM (active) | IC50 [22]: 2.3 µM (active) | IC50 [23]: 4.2 µM (active) | IC50 [24]: 4.94 µM (active) | IC50 [25]: 6.91 µM (active) | EC50 [26]: 36.1 µM (inactive)

O=C(CCc1ccccc1Cl)NC1CCCN(c2ccc(C(F)(F)F)cn2)C1 (stereo not drawn)
AC50 (Protein S100-A4): 9.67 µM (active)

CC1(C(=O)NCc2cccc(C(F)(F)F)c2)CCN1Cc1cc2ccccc2o1 (stereo not drawn)
AC50 (Vero): 20.4 µM (active)
